Measurements taken from patent US20070082339A1, “Methods and compositions for screening for HDAC inhibitory activity” (priority 2005, published 2007).
Square brackets hold non-standard residues; d marks the D form. Peptide text beside a SMILES is read from it. ξ: configuration not given here. Aoe(9ξ) = N[C@@H](CCCCCC(=O)C1CO1)C(=O)O; dPip = O=C(O)[C@H]1CCCCN1

Columns and labels:
RhoB promoter [1] = test: RhoB promoter deletion/mutation constructs, induction by TPX; type: cell-based; details: following TPX treatment
Experimental: (§1) Furthermore, mutations in this CCAAT box reduced the ability of HDAC1 to confer repression of RhoB promoter activity. In addition, chromatin immunoprecipitation assays reveal that TPX increased the level of chromatin acetylation in the TPX-responsive region of the RhoB promoter containing the inverted CCAAT box. […] The global gene expression profiles of A549 cells following inhibition of HDAC with LAQ824 were determined by DNA microarray analysis.

RhoB promoter [2] = test: Chromatin immunoprecipitation assays; type: cell-based; details: region containing the inverted CCAAT box
Experimental: as §1

histone deacetylase 1 = histone deacetylase 1 (Homo sapiens, UniProt Q13547); details: Tauton et al. Science 272:408-411 (1996); cited from earlier work
Chain of histone deacetylase 1 (Q13547 whole entry, species assumed): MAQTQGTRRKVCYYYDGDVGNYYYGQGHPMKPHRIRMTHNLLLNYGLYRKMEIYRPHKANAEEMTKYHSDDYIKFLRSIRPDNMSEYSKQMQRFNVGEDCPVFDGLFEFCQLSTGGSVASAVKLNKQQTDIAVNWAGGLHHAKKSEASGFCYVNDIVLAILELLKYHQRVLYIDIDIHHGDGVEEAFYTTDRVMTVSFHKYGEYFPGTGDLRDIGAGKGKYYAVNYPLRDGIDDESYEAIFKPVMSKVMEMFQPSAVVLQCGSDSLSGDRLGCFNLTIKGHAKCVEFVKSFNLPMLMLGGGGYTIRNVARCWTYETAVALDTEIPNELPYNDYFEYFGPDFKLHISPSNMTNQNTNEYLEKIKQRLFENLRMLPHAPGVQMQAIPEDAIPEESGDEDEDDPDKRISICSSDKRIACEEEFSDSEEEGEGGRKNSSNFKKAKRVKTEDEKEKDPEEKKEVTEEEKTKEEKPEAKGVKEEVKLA

O=C(CCCCC[C@@H]1NC(=O)[C@H]2CCCCN2C(=O)[C@H](Cc2ccccc2)NC(=O)[C@H](Cc2ccccc2)NC1=O)C1CO1 (stereo partly drawn) [TPX, trapoxin A] (cyclo(FF[dPip][Aoe(9ξ)]))
induction of expression from RhoB promoter deletion constructs (RhoB promoter [1]): induction of expression from all of these deletions is similar
level of chromatin acetylation in the TPX-responsive region of the RhoB promoter (RhoB promoter [2]): increased
inhibition of histone deacetylase 1 (histone deacetylase 1): potently inhibit
